target: Acetylcholine receptor subunit alpha (Mus musculus) (UniProt P04756); experiment: muscle nAChR inhibitors, cell-based, Mus musculus, Xenopus oocytes (AID 743368); details: two-electrode voltage clamp, ACh-evoked current
Sequence (P04756 whole entry, looked up): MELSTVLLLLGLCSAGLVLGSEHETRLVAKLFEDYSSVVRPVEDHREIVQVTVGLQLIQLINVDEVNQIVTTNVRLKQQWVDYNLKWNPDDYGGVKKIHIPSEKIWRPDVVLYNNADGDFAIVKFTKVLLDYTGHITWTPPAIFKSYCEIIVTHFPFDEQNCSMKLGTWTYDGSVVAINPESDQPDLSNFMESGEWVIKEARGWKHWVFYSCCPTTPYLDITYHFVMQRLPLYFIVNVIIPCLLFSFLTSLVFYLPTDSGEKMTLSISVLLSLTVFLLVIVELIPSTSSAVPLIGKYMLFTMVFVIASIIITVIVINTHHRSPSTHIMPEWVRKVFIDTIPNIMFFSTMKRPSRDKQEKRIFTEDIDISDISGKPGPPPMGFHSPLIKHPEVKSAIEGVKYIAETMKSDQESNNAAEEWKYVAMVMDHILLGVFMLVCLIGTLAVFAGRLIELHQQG

SMILES	IC50 [µM]
CC/C=C/[C@@H]1CC[C@]2(C[C@H]3CC[C@H]4[C@@H](C(=O)OC(CC)CCCCCCCCCCCCC[C@@H]5O[C@](O)(CCN)[C@H](O)N(CCCN)C5=O)[C@@]5(CCC[C@H](C)O5)NC(=[N+]34)N2)O1 (stereo partly drawn)	4.1
COn1c(Br)c2c3c(cccc31)[C@H]1C[C@@H](C)CN(C)[C@@H]1C2	3.7
COc1cc(CCN)c2c(c1OC)SSSSS2	8.7

Reference: PubChem BioAssay AID743368
